The values that follow come from ChEMBL document CHEMBL5291721, “A preclinical secondary pharmacology resource illuminates target-adverse drug reaction associations of marketed drugs” (Nat Commun, 2023).

As usually defined, the AC50 is the concentration giving half of the maximal activity seen. Read a high AC50 as weaker potency.

One experiment has as its target Histamine H2 receptor (Homo sapiens, UniProt P25021).
The target of a further experiment is D(1A) dopamine receptor (Homo sapiens, UniProt P21728).
Another experiment concerns the target T1, Progesterone receptor (Homo sapiens, UniProt P06401).
T1 sequence (P06401 whole entry): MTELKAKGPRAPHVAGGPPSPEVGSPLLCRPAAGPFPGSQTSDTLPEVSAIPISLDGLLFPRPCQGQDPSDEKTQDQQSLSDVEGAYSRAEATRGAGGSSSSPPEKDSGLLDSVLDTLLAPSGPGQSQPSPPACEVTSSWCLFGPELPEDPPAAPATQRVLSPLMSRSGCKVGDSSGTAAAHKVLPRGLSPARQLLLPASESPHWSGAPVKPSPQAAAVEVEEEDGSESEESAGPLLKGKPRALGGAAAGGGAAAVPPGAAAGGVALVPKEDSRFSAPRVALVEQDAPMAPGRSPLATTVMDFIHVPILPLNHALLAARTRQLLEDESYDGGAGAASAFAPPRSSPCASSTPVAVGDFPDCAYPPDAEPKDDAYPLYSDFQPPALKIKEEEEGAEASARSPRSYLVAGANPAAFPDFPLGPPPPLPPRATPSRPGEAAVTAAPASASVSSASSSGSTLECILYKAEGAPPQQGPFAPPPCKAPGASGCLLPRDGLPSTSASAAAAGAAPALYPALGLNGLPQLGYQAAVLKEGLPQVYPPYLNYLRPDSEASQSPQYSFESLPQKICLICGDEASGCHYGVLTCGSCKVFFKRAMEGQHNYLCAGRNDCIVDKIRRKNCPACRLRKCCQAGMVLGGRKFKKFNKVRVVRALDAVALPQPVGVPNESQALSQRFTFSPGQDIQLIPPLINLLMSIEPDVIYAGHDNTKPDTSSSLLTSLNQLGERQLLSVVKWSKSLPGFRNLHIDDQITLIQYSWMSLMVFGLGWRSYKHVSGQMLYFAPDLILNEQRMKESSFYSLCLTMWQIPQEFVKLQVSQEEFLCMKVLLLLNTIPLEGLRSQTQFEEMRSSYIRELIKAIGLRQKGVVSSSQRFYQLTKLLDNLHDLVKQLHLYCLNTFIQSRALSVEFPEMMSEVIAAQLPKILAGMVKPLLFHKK

The target in experiment [1] is Gamma-aminobutyric acid receptor subunit alpha-1 (Rattus norvegicus, UniProt P62813).
The next experiment has as its target T2, Androgen receptor (Rattus norvegicus, UniProt P15207).
T2 sequence (P15207 whole entry): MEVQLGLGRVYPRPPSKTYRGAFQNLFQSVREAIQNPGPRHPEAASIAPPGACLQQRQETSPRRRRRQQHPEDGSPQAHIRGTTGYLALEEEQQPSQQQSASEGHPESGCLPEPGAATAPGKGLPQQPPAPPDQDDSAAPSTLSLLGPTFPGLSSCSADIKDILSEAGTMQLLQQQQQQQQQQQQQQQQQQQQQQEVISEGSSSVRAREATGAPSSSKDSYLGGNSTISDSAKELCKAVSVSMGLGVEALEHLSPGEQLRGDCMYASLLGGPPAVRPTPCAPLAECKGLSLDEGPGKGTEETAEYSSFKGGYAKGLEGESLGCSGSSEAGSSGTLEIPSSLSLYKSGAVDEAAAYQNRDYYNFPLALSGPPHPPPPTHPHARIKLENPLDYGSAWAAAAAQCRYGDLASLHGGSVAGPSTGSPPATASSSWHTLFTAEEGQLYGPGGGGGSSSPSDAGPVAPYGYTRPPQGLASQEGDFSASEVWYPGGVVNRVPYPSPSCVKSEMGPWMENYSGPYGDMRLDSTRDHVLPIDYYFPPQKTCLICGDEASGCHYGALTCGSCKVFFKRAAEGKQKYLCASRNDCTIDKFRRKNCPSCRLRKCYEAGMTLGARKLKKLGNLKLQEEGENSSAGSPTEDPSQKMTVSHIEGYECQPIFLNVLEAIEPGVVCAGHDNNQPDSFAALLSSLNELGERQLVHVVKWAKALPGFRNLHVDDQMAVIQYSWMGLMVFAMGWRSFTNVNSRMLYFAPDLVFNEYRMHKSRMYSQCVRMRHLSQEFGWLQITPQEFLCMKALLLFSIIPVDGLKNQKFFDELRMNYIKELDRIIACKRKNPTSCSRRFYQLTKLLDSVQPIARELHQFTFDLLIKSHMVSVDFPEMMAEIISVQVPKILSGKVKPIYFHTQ
The format is functional.

Experiment [2] has as its target T3, Endothelin receptor type B (Homo sapiens, UniProt P24530).
T3 sequence (P24530 whole entry): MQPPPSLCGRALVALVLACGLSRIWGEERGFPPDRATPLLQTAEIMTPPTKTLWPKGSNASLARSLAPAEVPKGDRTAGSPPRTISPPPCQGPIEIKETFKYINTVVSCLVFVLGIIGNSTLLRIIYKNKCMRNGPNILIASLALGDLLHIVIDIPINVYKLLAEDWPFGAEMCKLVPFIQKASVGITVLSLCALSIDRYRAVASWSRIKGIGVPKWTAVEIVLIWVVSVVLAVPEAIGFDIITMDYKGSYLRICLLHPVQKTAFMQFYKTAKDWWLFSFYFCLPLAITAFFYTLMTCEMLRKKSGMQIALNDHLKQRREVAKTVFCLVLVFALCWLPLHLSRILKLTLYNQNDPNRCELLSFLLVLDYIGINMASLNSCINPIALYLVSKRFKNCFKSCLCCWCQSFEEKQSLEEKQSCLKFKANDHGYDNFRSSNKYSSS

Experiment [3] deals with T4, Corticotropin-releasing factor receptor 1 (Homo sapiens, UniProt P34998).
T4 sequence (P34998 whole entry): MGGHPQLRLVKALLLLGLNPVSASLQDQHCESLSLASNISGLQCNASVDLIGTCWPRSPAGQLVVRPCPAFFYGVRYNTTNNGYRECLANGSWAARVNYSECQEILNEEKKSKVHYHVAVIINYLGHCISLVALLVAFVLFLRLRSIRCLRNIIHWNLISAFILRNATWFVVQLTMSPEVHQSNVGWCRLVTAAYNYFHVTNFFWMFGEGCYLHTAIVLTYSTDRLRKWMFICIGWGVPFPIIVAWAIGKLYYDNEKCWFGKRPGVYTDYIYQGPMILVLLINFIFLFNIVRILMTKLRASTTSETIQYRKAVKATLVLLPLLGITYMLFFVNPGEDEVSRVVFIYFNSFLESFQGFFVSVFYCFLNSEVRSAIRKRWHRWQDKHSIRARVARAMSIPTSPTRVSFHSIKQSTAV

In experiment [4] the target is Neurotensin receptor type 1 (Homo sapiens, UniProt P30989).

A value given as a limit tells only on which side of the number the result lay.
Further: assay procedure not described here.

Sequence of D(1A) dopamine receptor (P21728 whole entry): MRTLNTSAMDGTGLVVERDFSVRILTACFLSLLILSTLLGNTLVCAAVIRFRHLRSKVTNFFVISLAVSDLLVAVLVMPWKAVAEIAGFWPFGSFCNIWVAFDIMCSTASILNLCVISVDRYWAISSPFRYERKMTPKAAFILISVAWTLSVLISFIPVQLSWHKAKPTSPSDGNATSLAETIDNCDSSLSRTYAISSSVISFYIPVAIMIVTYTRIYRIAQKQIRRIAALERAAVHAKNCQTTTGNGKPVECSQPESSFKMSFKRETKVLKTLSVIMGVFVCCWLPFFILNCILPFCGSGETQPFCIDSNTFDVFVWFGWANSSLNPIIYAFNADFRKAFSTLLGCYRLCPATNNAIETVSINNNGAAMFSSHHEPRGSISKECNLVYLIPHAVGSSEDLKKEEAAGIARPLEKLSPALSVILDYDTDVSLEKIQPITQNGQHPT
Sequence of Histamine H2 receptor (P25021 whole entry): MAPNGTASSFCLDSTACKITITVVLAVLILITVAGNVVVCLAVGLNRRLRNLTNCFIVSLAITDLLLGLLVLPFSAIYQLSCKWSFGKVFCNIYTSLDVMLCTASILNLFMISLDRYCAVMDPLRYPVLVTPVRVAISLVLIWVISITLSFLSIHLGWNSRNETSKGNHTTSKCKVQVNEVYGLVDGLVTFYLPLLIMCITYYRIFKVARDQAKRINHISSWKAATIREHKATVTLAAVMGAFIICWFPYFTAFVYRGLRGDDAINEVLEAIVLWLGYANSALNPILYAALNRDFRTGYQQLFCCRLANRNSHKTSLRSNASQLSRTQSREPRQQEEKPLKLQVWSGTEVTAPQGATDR
Sequence of Neurotensin receptor type 1 (P30989 whole entry): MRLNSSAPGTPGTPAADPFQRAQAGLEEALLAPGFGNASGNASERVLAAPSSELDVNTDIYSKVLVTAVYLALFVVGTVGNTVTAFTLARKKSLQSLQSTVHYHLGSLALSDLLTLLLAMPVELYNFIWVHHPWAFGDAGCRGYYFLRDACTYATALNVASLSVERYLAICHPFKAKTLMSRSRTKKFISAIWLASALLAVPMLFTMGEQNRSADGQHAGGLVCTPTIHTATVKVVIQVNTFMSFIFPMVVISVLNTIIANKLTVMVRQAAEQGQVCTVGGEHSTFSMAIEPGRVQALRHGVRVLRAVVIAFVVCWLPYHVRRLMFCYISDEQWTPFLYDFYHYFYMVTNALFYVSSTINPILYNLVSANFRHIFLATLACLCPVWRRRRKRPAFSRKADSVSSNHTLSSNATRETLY
Sequence of Gamma-aminobutyric acid receptor subunit alpha-1 (P62813 whole entry): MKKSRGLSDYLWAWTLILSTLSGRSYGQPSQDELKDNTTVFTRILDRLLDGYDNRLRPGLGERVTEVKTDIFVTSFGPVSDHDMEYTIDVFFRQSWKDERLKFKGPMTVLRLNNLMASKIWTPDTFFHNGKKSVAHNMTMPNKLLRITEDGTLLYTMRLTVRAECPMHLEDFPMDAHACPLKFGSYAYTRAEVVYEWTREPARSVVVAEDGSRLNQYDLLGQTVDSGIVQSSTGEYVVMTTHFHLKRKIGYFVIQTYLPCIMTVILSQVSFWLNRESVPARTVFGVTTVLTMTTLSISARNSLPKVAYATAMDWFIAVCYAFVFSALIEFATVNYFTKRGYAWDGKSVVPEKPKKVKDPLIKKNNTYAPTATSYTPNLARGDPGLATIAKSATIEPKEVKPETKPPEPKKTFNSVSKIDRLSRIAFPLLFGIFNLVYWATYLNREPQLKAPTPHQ

Turning to `CCC[C@H](NC(=O)[C@@H]1[C@H]2CCC[C@H]2CN1C(=O)[C@@H](NC(=O)[C@@H](NC(=O)c1cnccn1)C1CCCCC1)C(C)(C)C)C(=O)C(=O)NC1CC1`, the AC50 at Histamine H2 receptor is over 10 µM; on D(1A) dopamine receptor, over 10 µM; on Progesterone receptor, over 30 µM.
`Cc1cc(N)c2ccccc2[n+]1CCCCCCCCCC[n+]1c(C)cc(N)c2ccccc21` returned an AC50 in experiment [1] of 24.6 µM.
With `CCOC(=O)[C@H](CCc1ccccc1)N[C@@H](C)C(=O)N(CC(=O)O)C1Cc2ccccc2C1`, the AC50 in experiment [1] was over 30 µM.
Regarding `C=CCNc1nc(NCC=C)nc(N2CCN(C(c3ccc(F)cc3)c3ccc(F)cc3)CC2)n1` [ALMITRINE], the AC50 at Androgen receptor was over 30 µM.
`C=CCSCC1Nc2cc(Cl)c(S(N)(=O)=O)cc2S(=O)(=O)N1` (configuration not stated) [ALTHIAZIDE] displayed a concentration at half-maximal activity (AC50) in experiment [1] of over 30 µM.
On to `CC(C)COCC(CN(Cc1ccccc1)c1ccccc1)N1CCCC1` (configuration not stated) [BEPRIDIL], for which the AC50 (in experiment [2]; on Progesterone receptor; in experiment [3]; in experiment [4]) was over 30 µM in each case.
Consider `CCCCC(=O)O[C@]1(C(=O)CO)[C@@H](C)C[C@H]2[C@@H]3CCC4=CC(=O)C=C[C@]4(C)[C@@]3(F)[C@@H](O)C[C@@]21C` [BETAMETHASONE VALERATE], for which the AC50 on Progesterone receptor is 0.13 µM. This counts as sub-micromolar.
The compound `COc1cc(N2CCC(N3CCN(C)CC3)CC2)ccc1Nc1ncc(Cl)c(Nc2ccccc2P(C)(C)=O)n1` [BRIGATINIB] gave a concentration at half-maximal activity (AC50) in experiment [1] of over 30 µM.
Same read-out and setting: the value for `CN(C)CCOC(c1ccccc1)c1ccc(Br)cc1` (configuration not stated) [BROMODIPHENHYDRAMINE] was over 30 µM.
The compound `CCC(C)C1(CC)C(=O)NC(=O)NC1=O` (configuration not stated) [BUTABARBITAL] returned a concentration at half-maximal activity (AC50) on Androgen receptor of over 30 µM.
At Androgen receptor, `COCC1=C(C(=O)O)N2C(=O)[C@@H](NC(=O)/C(=N\OC)c3csc(N)n3)[C@H]2SC1` [CEFPODOXIME] returned an AC50 of over 30 µM.
`CNC1=Nc2ccc(Cl)cc2C(c2ccccc2)=[N+]([O-])C1` [CHLORDIAZEPOXIDE] came in with a concentration at half-maximal activity (AC50) on Progesterone receptor of over 30 µM.
The compound `CC(=O)O[C@]1(C(C)=O)CC[C@H]2[C@@H]3C=C(Cl)C4=CC(=O)CC[C@]4(C)[C@H]3CC[C@@]21C` [CHLORMADINONE ACETATE] had an AC50 in experiment [1] of over 30 µM.
Still for that read-out and setting: as for `NC(=O)OCC(O)COc1ccc(Cl)cc1` (configuration not stated) [CHLORPHENESIN CARBAMATE], the figure is over 30 µM.
Turning to `O=C(O)c1cn(C2CC2)c2cc(N3CCNCC3)c(F)cc2c1=O` [CIPROFLOXACIN], the half-maximal activity concentration (AC50) (in experiment [2]; on Progesterone receptor; in experiment [3]; in experiment [4]) was over 30 µM throughout.
In experiment [1], `CCN(CC)C(=S)S` [DITIOCARB] displayed an AC50 of over 30 µM.
The same measure, in the same setting: the value for `C=C1CC[C@H](O)C/C1=C/C=C1\CCC[C@]2(C)[C@@H]([C@H](C)/C=C/[C@H](C)C(C)C)CC[C@@H]12` [ERGOCALCIFEROL] was over 30 µM.
Same read-out and setting: the value for `CC(C(=O)O)c1ccc(-c2ccccc2)c(F)c1` (configuration not stated) [FLURBIPROFEN] was over 30 µM.
For the compound `CCC(=O)O[C@]1(C(=O)SCF)[C@H](C)C[C@H]2[C@@H]3C[C@H](F)C4=CC(=O)C=C[C@]4(C)[C@@]3(F)[C@@H](O)C[C@@]21C` [FLUTICASONE PROPIONATE], the concentration at half-maximal activity (AC50) in experiment [1] is over 30 µM; at Histamine H2 receptor, over 10 µM; in experiment [2] it was over 30 µM; on D(1A) dopamine receptor it was over 10 µM; in experiment [3], over 30 µM; in experiment [4], over 30 µM.
Turning to `Cc1cnc(C(=O)NCCc2ccc(S(=O)(=O)NC(=O)NC3CCCCC3)cc2)cn1` [GLIPIZIDE], the half-maximal activity concentration (AC50) on Histamine H2 receptor is over 10 µM; in experiment [2], over 30 µM; on Progesterone receptor it was over 30 µM; in experiment [3] it was over 30 µM; in experiment [4], over 30 µM.
`CC(N)Cc1ccc(O)cc1` (configuration not stated) [HYDROXYAMPHETAMINE] showed a concentration at half-maximal activity (AC50) in experiment [1] of over 30 µM.
Still for that read-out and setting: the value for `Cc1cc(NC(=O)C2=C(O)c3ccccc3S(=O)(=O)N2C)no1` [ISOXICAM] was over 30 µM; that for `COc1cc2c(cc1OC)CC(=O)N(CCCN(C)C[C@H]1Cc3cc(OC)c(OC)cc31)CC2` [IVABRADINE] was over 30 µM.
`Oc1ccc2c(c1)CC[C@H](c1ccccc1)[C@@H]2c1ccc(OCCN2CCCC2)cc1` [LASOFOXIFENE]: the AC50 at Androgen receptor is over 30 µM.
Consider `CN1CCN(C2=Nc3ccccc3Oc3ccc(Cl)cc32)CC1` [LOXAPINE], for which the half-maximal activity concentration (AC50) in experiment [1] was over 30 µM; in experiment [2], over 30 µM; at D(1A) dopamine receptor it was 0.102 µM; on Progesterone receptor, over 30 µM; in experiment [3] it was over 30 µM; in experiment [4] it was over 30 µM.
Take `CN1C(=O)/C(=N\NC(N)=S)c2ccccc21` [METHISAZONE]: in experiment [1], half-maximal activity (AC50) was put at 12.3 µM.
Consider `CN(C)CCCNc1c2ccccc2nc2cccc([N+](=O)[O-])c12` [NITRACRINE], for which the concentration at half-maximal activity (AC50) on Androgen receptor was over 30 µM.
In experiment [1], `O=[N+]([O-])c1ccc(O)c2ncccc12` [NITROXOLINE] yielded an AC50 of over 30 µM.
In experiment [1], `NCC(CC(=O)O)c1ccccc1` (configuration not stated) [PHENIBUT] registered an AC50 of over 30 µM.
On Androgen receptor, `Clc1ccc2c(N3CCN(CCCN4CCN(c5ccnc6cc(Cl)ccc56)CC4)CC3)ccnc2c1` [PIPERAQUINE] came in with a half-maximal activity concentration (AC50) of over 30 µM.
With `CC[C@@H]([C@H](C)O)n1ncn(-c2ccc(N3CCN(c4ccc(OC[C@@H]5CO[C@@](Cn6cncn6)(c6ccc(F)cc6F)C5)cc4)CC3)cc2)c1=O` [POSACONAZOLE], the AC50 in experiment [1] was over 30 µM.
`CCCN[C@H]1CCc2nc(N)sc2C1` [PRAMIPEXOLE] yielded an AC50 on Histamine H2 receptor of 3.86 µM.
On to `COc1ccc(CN(CCN(C)C)c2ccccn2)cc1` [PYRILAMINE], for which the AC50 in experiment [1] was over 30 µM.
The compound `Cc1cccc(N2CC(CO)OC2=O)c1` (configuration not stated) [TOLOXATONE] gave a half-maximal activity concentration (AC50) on Androgen receptor of over 30 µM.
`CCCC(CCC)C(N)=O` [VALPROMIDE] yielded a half-maximal activity concentration (AC50) on Progesterone receptor of over 30 µM.
